Assays:
[1] = tested on: antibodies in sera from SARS patients (sera 1a, 1b, 2, 6, 37, 62, London, SARS-yellow, SARS-green); format: binding, human; set-up: Binding of serum 6 to linear peptides of protein X1 of SARS-CoV Urbani / Binding of serum 37 to linear peptides of protein X1 of SARS-CoV Urbani / Binding of serum 6 to looped/cyclic peptide (PEPSCAN-ELISA) / Binding of serum 37 to looped/cyclic peptide (PEPSCAN-ELISA) / Binding of serum 37 to looped/cyclic peptides of protein X1 of SARS-CoV Urbani / Binding of serum 6 to linear peptides of protein X2 / Binding of serum 37 to linear peptides of protein X2 / Binding of serum 37 to looped/cyclic peptides of protein X2 of SARS-CoV Urbani / Binding of serum 6 to linear peptides of protein M of SARS-CoV Urbani / Binding of serum 37 to linear peptides of protein M of SARS-CoV Urbani / Binding of serum 6 to looped/cyclic peptides of protein M of SARS-CoV Urbani / Binding of serum 37 to looped/cyclic peptides of protein M of SARS-CoV Urbani / Binding of serum 6 to linear peptides of protein X3 of SARS-CoV Urbani / Binding of serum 37 to linear peptides of protein X3 of SARS-CoV Urbani / Binding of serum 37 to looped/cyclic peptides of protein X3 of SARS-CoV Urbani / Binding of serum 6 to linear peptides of protein X4 of SARS-CoV Urbani / Binding of serum 37 to linear peptides of protein X4 of SARS-CoV Urbani / Binding of serum 37 to looped/cyclic peptides of protein X4 of SARS-CoV Urbani / Binding of serum 6 to linear peptides of protein X5 of SARS-CoV Urbani / Binding of serum 37 to linear peptides of protein X5 of SARS-CoV Urbani / Binding of serum 37 to looped/cyclic peptides of protein X5 of SARS-CoV Urbani / Binding of serum 6 to linear peptides of protein N of SARS-CoV Urbani / Binding of serum 37 to linear peptides of protein N of SARS-CoV Urbani / Binding of serum 6 to linear peptide (PEPSCAN-ELISA) / Binding of serum 1a to looped/cyclic peptides of protein N of SARS-CoV Urbani / Binding of serum 1b to looped/cyclic peptides of protein N of SARS-CoV Urbani / Binding of serum 2 to looped/cyclic peptides of protein N of SARS-CoV Urbani / Binding of serum 6 to looped/cyclic peptides of protein N of SARS-CoV Urbani / Binding of serum 37 to looped/cyclic peptides of protein N of SARS-CoV Urbani / Binding of serum 62 to looped/cyclic peptides of protein N of SARS-CoV Urbani / Binding of serum London to looped/cyclic peptides of protein N of SARS-CoV Urbani / Binding of serum SARS-green to looped/cyclic peptides of protein N of SARS-CoV Urbani: unit not given here
[2] = tested on: control sera (pooled serum of ten healthy LUMC hospital workers; commercial negative donor pooled serum from the Dutch bloodbank); format: binding, human; set-up: Binding of Control serum LUMC to linear peptides / Binding of Control serum Blood-bank to linear peptides / Binding of Control serum LUMC to looped peptides / Binding of Control Serum Blood-Bank to Looped peptides / Binding of Control serum LUMC to linear peptides of the protein M of SARS-CoV Urbani / Binding of Control serum Blood-bank to linear peptides of the protein M of SARS-CoV Urbani / Binding of Control serum LUMC to looped peptides of the protein M of SARS-CoV Urbani / Binding of Control Serum Blood-Bank to Looped peptides of the protein M of SARS-CoV Urbani: unit not given here
[3] = tested on: rabbit serum obtained by immunizing a rabbit with the SARS-CoV strain Frankfurt 1; format: binding; set-up: Binding of a rabbit serum to linear peptides / Binding of a rabbit serum to looped peptides / Rabbit serum linear peptides / Rabbit serum looped peptides / Binding of a rabbit serum to linear peptides of protein N of SARS-CoV Urbani (Rabbit serum linear peptides) / Binding of a rabbit serum to looped/cyclic peptides of protein N of SARS-CoV Urbani (Rabbit serum looped peptides): unit not given here

## AIAMACIVGLMWLSY
[1]
  Binding of serum 1a to linear peptides of protein M of SARS-CoV Urbani: 0.7
  Binding of serum 1a to looped/cyclic peptides of protein M of SARS-CoV Urbani: 0.5
  Binding of serum 1b to linear peptides of protein M of SARS-CoV Urbani: 0.5
  Binding of serum 1b to looped/cyclic peptides of protein M of SARS-CoV Urbani: 0.3
  Binding of serum 2 to linear peptides of protein M of SARS-CoV Urbani: 0.6
  Binding of serum 2 to looped/cyclic peptides of protein M of SARS-CoV Urbani: 0.4
  Binding of serum 6 to linear peptides of protein M of SARS-CoV Urbani: 0.4
  Binding of serum 6 to looped/cyclic peptides of protein M of SARS-CoV Urbani: 0.6
  Binding of serum 37 to linear peptides of protein M of SARS-CoV Urbani: 0.7
  Binding of serum 37 to looped/cyclic peptides of protein M of SARS-CoV Urbani: 0.5
  Binding of serum 62 to linear peptides of protein M of SARS-CoV Urbani: 0.7
  Binding of serum 62 to looped/cyclic peptides of protein M of SARS-CoV Urbani: 0.4
  Binding of serum London to linear peptides of protein M of SARS-CoV Urbani: 0.4
  Binding of serum London to looped/cyclic peptides of protein M of SARS-CoV Urbani: 0.2
  Binding of serum SARS-green to linear peptides of protein M of SARS-CoV Urbani: 0.3
  Binding of serum SARS-green to looped/cyclic peptides of protein M of SARS-CoV Urbani: 4.4
  Binding of serum SARS-yellow to linear peptides of protein M of SARS-CoV Urbani: 0.1
  Binding of serum SARS-yellow to looped/cyclic peptides of protein M of SARS-CoV Urbani: 0.8
[2]
  Binding of Control Serum Blood-Bank to Looped peptides of the protein M of SARS-CoV Urbani: 0.6
  Binding of Control serum Blood-bank to linear peptides of the protein M of SARS-CoV Urbani: 0.7
  Binding of Control serum LUMC to linear peptides of the protein M of SARS-CoV Urbani: 0.3
  Binding of Control serum LUMC to looped peptides of the protein M of SARS-CoV Urbani: 0.6
[3]
  Rabbit serum linear peptides: 0.4
  Rabbit serum looped peptides: 0.0

## ALGKVLPFHRWHTMV
[1]
  Binding of serum 1a to linear peptides of protein X5 of SARS-CoV Urbani: 0.9
  Binding of serum 1a to looped/cyclic peptides of protein X5 of SARS-CoV Urbani: 0.4
  Binding of serum 1b to linear peptides of protein X5 of SARS-CoV Urbani: 0.5
  Binding of serum 1b to looped/cyclic peptides of protein X5 of SARS-CoV Urbani: 0.0
  Binding of serum 2 to linear peptides of protein X5 of SARS-CoV Urbani: 0.7
  Binding of serum 2 to looped/cyclic peptides of protein X5 of SARS-CoV Urbani: 0.6
  Binding of serum 6 to linear peptides of protein X5 of SARS-CoV Urbani: 0.6
  Binding of serum 6 to looped/cyclic peptides of protein X5 of SARS-CoV Urbani: 0.3
  Binding of serum 37 to linear peptides of protein X5 of SARS-CoV Urbani: 0.6
  Binding of serum 37 to looped/cyclic peptides of protein X5 of SARS-CoV Urbani: 0.5
  Binding of serum 62 to linear peptides of protein X5 of SARS-CoV Urbani: 0.7
  Binding of serum 62 to looped/cyclic peptides of protein X5 of SARS-CoV Urbani: 0.5
  Binding of serum London to linear peptides of protein X5 of SARS-CoV Urbani: 0.7
  Binding of serum London to looped/cyclic peptides of protein X5 of SARS-CoV Urbani: 0.2
  Binding of serum SARS-green to linear peptides of protein X5 of SARS-CoV Urbani: 0.5
  Binding of serum SARS-green to looped/cyclic peptides of protein X5 of SARS-CoV Urbani: 0.6
  Binding of serum SARS-yellow to linear peptides of protein X5 of SARS-CoV Urbani: 0.2
  Binding of serum SARS-yellow to looped/cyclic peptides of protein X5 of SARS-CoV Urbani: 0.1
[2]
  Binding of Control Serum Blood-Bank to Looped peptides: 0.1
  Binding of Control serum Blood-bank to linear peptides: 0.8
  Binding of Control serum LUMC to linear peptides: 0.5
  Binding of Control serum LUMC to looped peptides: 0.5
[3]
  Rabbit serum linear peptides: 0.6
  Rabbit serum looped peptides: 0.1

## ALQELLIQQWIQFMM
[1]
  Binding of serum 1a to linear peptides of protein X2: 0.7
  Binding of serum 1a to looped/cyclic peptides of protein X2 of SARS-CoV Urbani: 0.7
  Binding of serum 1b to linear peptides of protein X2: 0.6
  Binding of serum 1b to looped/cyclic peptides of protein X2 of SARS-CoV Urbani: 0.5
  Binding of serum 2 to linear peptides of protein X2: 0.4
  Binding of serum 2 to looped/cyclic peptides of protein X2 of SARS-CoV Urbani: 0.4
  Binding of serum 6 to linear peptides of protein X2: 0.4
  Binding of serum 6 to looped/cyclic peptides of protein X2 of SARS-CoV Urbani: 0.2
  Binding of serum 37 to linear peptides of protein X2: 0.6
  Binding of serum 37 to looped/cyclic peptides of protein X2 of SARS-CoV Urbani: 0.5
  Binding of serum 62 to linear peptides of protein X2: 0.6
  Binding of serum 62 to looped/cyclic peptides of protein X2 of SARS-CoV Urbani: 0.7
  Binding of serum London to linear peptides of protein X2: 0.5
  Binding of serum London to looped/cyclic peptides of protein X2 of SARS-CoV Urbani: 0.2
  Binding of serum SARS-green to linear peptides of protein X2: 0.7
  Binding of serum SARS-green to looped/cyclic peptides of protein X2 of SARS-CoV Urbani: 0.4
  Binding of serum SARS-yellow to linear peptides of protein X2: 0.4
  Binding of serum SARS-yellow to looped/cyclic peptides of protein X2 of SARS-CoV Urbani: 0.5
[2]
  Binding of Control Serum Blood-Bank to Looped peptides: 0.7
  Binding of Control serum Blood-bank to linear peptides: 0.5
  Binding of Control serum LUMC to linear peptides: 0.4
  Binding of Control serum LUMC to looped peptides: 0.7
[3]
  Binding of a rabbit serum to linear peptides: 0.2
  Binding of a rabbit serum to looped peptides: 0.4

## ALVFLILCFTIKRKT
[1]
  Binding of serum 1a to linear peptides of protein X4 of SARS-CoV Urbani: 0.7
  Binding of serum 1a to looped/cyclic peptides of protein X4 of SARS-CoV Urbani: 0.8
  Binding of serum 1b to linear peptides of protein X4 of SARS-CoV Urbani: 0.6
  Binding of serum 1b to looped/cyclic peptides of protein X4 of SARS-CoV Urbani: 0.5
  Binding of serum 2 to linear peptides of protein X4 of SARS-CoV Urbani: 0.7
  Binding of serum 2 to looped/cyclic peptides of protein X4 of SARS-CoV Urbani: 0.8
  Binding of serum 6 to linear peptides of protein X4 of SARS-CoV Urbani: 0.7
  Binding of serum 6 to looped/cyclic peptides of protein X4 of SARS-CoV Urbani: 0.9
  Binding of serum 37 to linear peptides of protein X4 of SARS-CoV Urbani: 0.7
  Binding of serum 37 to looped/cyclic peptides of protein X4 of SARS-CoV Urbani: 0.6
  Binding of serum 62 to linear peptides of protein X4 of SARS-CoV Urbani: 0.8
  Binding of serum 62 to looped/cyclic peptides of protein X4 of SARS-CoV Urbani: 0.7
  Binding of serum London to linear peptides of protein X4 of SARS-CoV Urbani: 0.8
  Binding of serum London to looped/cyclic peptides of protein X4 of SARS-CoV Urbani: 1.1
  Binding of serum SARS-green to linear peptides of protein X4 of SARS-CoV Urbani: 0.7
  Binding of serum SARS-green to looped/cyclic peptides of protein X4 of SARS-CoV Urbani: 0.5
  Binding of serum SARS-yellow to linear peptides of protein X4 of SARS-CoV Urbani: 0.4
  Binding of serum SARS-yellow to looped/cyclic peptides of protein X4 of SARS-CoV Urbani: 0.6
[2]
  Binding of Control Serum Blood-Bank to Looped peptides: 0.8
  Binding of Control serum Blood-bank to linear peptides: 0.8
  Binding of Control serum LUMC to linear peptides: 0.6
  Binding of Control serum LUMC to looped peptides: 0.7
[3]
  Rabbit serum linear peptides: 0.6
  Rabbit serum looped peptides: 0.6

## AMACIVGLMWLSYFV
[1]
  Binding of serum 1a to linear peptides of protein M of SARS-CoV Urbani: 0.7
  Binding of serum 1a to looped/cyclic peptides of protein M of SARS-CoV Urbani: 0.7
  Binding of serum 1b to linear peptides of protein M of SARS-CoV Urbani: 0.5
  Binding of serum 1b to looped/cyclic peptides of protein M of SARS-CoV Urbani: 0.7
  Binding of serum 2 to linear peptides of protein M of SARS-CoV Urbani: 0.6
  Binding of serum 2 to looped/cyclic peptides of protein M of SARS-CoV Urbani: 0.6
  Binding of serum 6 to linear peptides of protein M of SARS-CoV Urbani: 0.4
  Binding of serum 6 to looped/cyclic peptides of protein M of SARS-CoV Urbani: 0.9
  Binding of serum 37 to linear peptides of protein M of SARS-CoV Urbani: 0.6
  Binding of serum 37 to looped/cyclic peptides of protein M of SARS-CoV Urbani: 0.6
  Binding of serum 62 to linear peptides of protein M of SARS-CoV Urbani: 0.6
  Binding of serum 62 to looped/cyclic peptides of protein M of SARS-CoV Urbani: 0.5
  Binding of serum London to linear peptides of protein M of SARS-CoV Urbani: 0.4
  Binding of serum London to looped/cyclic peptides of protein M of SARS-CoV Urbani: 0.2
  Binding of serum SARS-green to linear peptides of protein M of SARS-CoV Urbani: 0.2
  Binding of serum SARS-green to looped/cyclic peptides of protein M of SARS-CoV Urbani: 0.4
  Binding of serum SARS-yellow to linear peptides of protein M of SARS-CoV Urbani: 0.1
  Binding of serum SARS-yellow to looped/cyclic peptides of protein M of SARS-CoV Urbani: 0.6
[2]
  Binding of Control Serum Blood-Bank to Looped peptides of the protein M of SARS-CoV Urbani: 0.6
  Binding of Control serum Blood-bank to linear peptides of the protein M of SARS-CoV Urbani: 0.6
  Binding of Control serum LUMC to linear peptides of the protein M of SARS-CoV Urbani: 0.3
  Binding of Control serum LUMC to looped peptides of the protein M of SARS-CoV Urbani: 0.7
[3]
  Rabbit serum linear peptides: 0.4
  Rabbit serum looped peptides: 0.1

From patent US20070128217A1 (priority 2003, published 2007)
